From patent US20240018146A1, “COMPOSITIONS AND METHODS OF USING THE SAME FOR TREATMENT OF NEURODEGENERATIVE AND MITOCHONDRIAL DISEASE” (MITOKININ, INC., priority 2020, published 2024)
In brackets after ≈: the same amount, converted by molar mass. Where two headings read alike, the source gives them in different places.

Legend:
HeLa MKYP cells [1] = assay: Human mitophagy assay (HeLa mKeima assay, FACS); assay type: cell-based; conditions: for EC50: Homo sapiens, HeLa
Summary of the method: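 Mitophagy, read by FACS as the share of cells showing the lysosomal mtKeima emission shift, followed 6 h of 1 uM FCCP/oligomycin stimulation. Before that, HeLa MKYP cells spent 16 h with compound over a concentration range.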

HeLa MKYP cells [2] = assay: Cell death measured by DAPI staining, with 1 μM FCCP/oligomycin or no toxin (no FO); assay type: cell-based; conditions: for E105 death at 8.3 μM (no FO): 8.3 μM compound; for Max cell death at 25 μM compound, 1 uM FO (%) / Cell death at 25 μM (no FO) (%) / E104 death at 25 μM (no FO): 25 μM compound
Summary of the method: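 Cell death was read by DAPI staining after 6–6.5 h compound exposure in HeLa MKYP cells, either with 1 μM FCCP/oligomycin or without toxin. H2O2 served as the cell-death control.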

[3] = Mitotoxicity / Mitotox safety margin (therapeutic window); assay type: cell-based; conditions: for mitotoxicity: FIG. 5-7
Kinetic solubility = assay type: physicochemical
[4] = HeLa mKeima assay, read-out: Mitophagy EC50 (HeLa mKeima assay)
[5] = mitophagy, 1 μM FCCP/oligomycin, read-out: E100 EC50
[6] = read-out: Mitophagy induction EC50
[7] = mitophagy, 1 μM FCCP/oligomycin
[8] = average ± spread, read-out: E100 EC50 (μM) (average)

Row | Compound | E102 max mitophagy, fold over DMSO (HeLa MKYP cells [1]; 1 μM FCCP/oligomycin) [fold over DMSO] | EC50 (HeLa MKYP cells [1]; [4]) [µM] | EC50 (HeLa MKYP cells [1]; [5]) [µM] | EC50 (HeLa MKYP cells [1]; [6]) [µM] | E101 lowest effective dose (HeLa MKYP cells [1]; [7]) [µM] | E105 death at 8.3 μM (no FO) (HeLa MKYP cells [2]) | Max cell death at 25 μM compound, 1 uM FO (%) (HeLa MKYP cells [2]) | Cell death at 25 μM (no FO) (%) (HeLa MKYP cells [2]) | E104 death at 25 μM (no FO) (HeLa MKYP cells [2]) | Highest safe dose (cytotoxicity; no FO; safe means DAPI+ <20%) (HeLa MKYP cells [2]) [µM] | E103 max death with 1 μM FO (HeLa MKYP cells [2]) | Max % death with 1 μM FO (HeLa MKYP cells [2]) [%] | Mitotox safety margin (Therapeutic window) [3] | Mito-Safety Index (highest safe dose/EC50) [3] | Highest safe dose (μM) (mitotox or cytotox) [3] [µM] | solubility kinetic (Kinetic solubility) [µM] | Mitophagy EC50 (HeLa mKeima assay) (μM) (HeLa MKYP cells [1]; HeLa mKeima assay) | EC50 (HeLa MKYP cells [1]; [8]) [µM] | mitotoxicity [3] | solubility kinetic (Kinetic solubility; kinetic from dmso stock) [µM]
1 | FC(F)(F)c1cc2c(N[C@@H]3c4ccccc4CC[C@H]3N3CCOCC3)ncnc2[nH]1 (racemic) [EP-0037821] | 9.53 | 0.4 | 0.45 | 0.38 | 0.30 | 2.87 | 71.62 | 41.03 | 25.17 | 13.9 | 62.82 | 68.5 | ++++ (++++ = 30<) | 22.05 | 8.3 | 14.1 (≈ 5.89 µg/mL) | – | – | – | –
2 | c1ccc2c(c1)CC[C@H](N1CCOCC1)[C@H]2Nc1ncnc2[nH]c(C3CC3)cc12 (racemic) [EP-0039677] | – | 0.21 | – | 0.21 | – | – | 10.2 | 3.02 | – | 25.0 | – | 10.2 | ++++ (++++ = 30<) | 13.51 | 2.8 | 1.56 (≈ 0.608 µg/mL) | – | – | – | –
3 | FC(F)(F)c1cc2c(N[C@@H]3c4ccccc4CC[C@H]3N3CCOCC3)ncnc2[nH]1 (single isomer, unassigned) [EP-0038099] | 7.78 | – | – | – | 25.00 | 2.41 | 13.7 | 4.11 | 4.11 | – | 13.71 | – | – | – | – | 14.1 (≈ 5.89 µg/mL) | Minimal | – | – | –
4 | O=C1COCCN1[C@H]1CCc2ccccc2[C@@H]1Nc1ncnc2[nH]c(C(F)(F)F)cc12 (single isomer, unassigned) [EP-0038378] | – | 2.77 | – | > 25 | – | – | 15.4 | 4.55 | – | 25.0 | – | 15.4 | – | – | – | 3.02 (≈ 1.3 µg/mL) | – | – | – | –
5 | FC(F)(F)c1cc2c(N[C@H]3c4ccccc4CC[C@@H]3N3CCCCC3)ncnc2[nH]1 (single isomer, unassigned) [EP-0038392] | – | 2.77 | – | > 25 | – | – | 23.2 | 3.1 | – | 25.0 | – | 23.2 | – | – | – | 187 (≈ 77.7 µg/mL) | – | – | – | –
6 | FC1(F)CCN([C@H]2CCc3ccccc3[C@@H]2Nc2ncnc3[nH]c(C(F)(F)F)cc23)CC1 (single isomer, unassigned) [EP-0038393] | – | 2.43 | – | > 25 | – | – | 17.6 | 1.98 | – | 25.0 | – | 17.6 | – | – | – | 1 (≈ 0.451 µg/mL) | – | – | – | –
7 | Fc1ccc2c(c1)CC[C@H](N1CCOCC1)[C@H]2Nc1ncnc2[nH]c(C(F)(F)F)cc12 (single isomer, unassigned) [EP-0038503] | 5.11 | 0.38 | 0.58 | 0.48 | 8.33 | – | 8.15 | 2.53 | – | 25.0 | 4.37 | 6.3 | ++ (++ = 10 < x < 20) | 17.40 | 8.3 | 1.56 (≈ 0.679 µg/mL) | – | 0.48 ± 0.1 | low mitotoxicity | –
8 | Fc1ccc2c(c1)CC[C@@H](N1CCOCC1)[C@@H]2Nc1ncnc2[nH]c(C(F)(F)F)cc12 (single isomer, unassigned) [EP-0038504] | 4.67 | 14.2 | 14.2 | 14.2 | 8.33 | 2.93 | 4.59 | 3.1 | 3.10 | 25.0 | 4.59 | 4.6 | + (+ = <10) | 1.76 | 25.0 | 1.56 (≈ 0.679 µg/mL) | – | – | low mitotoxicity | –
9 | Fc1ccc2c(c1)CC[C@H](N1CCOCC1)[C@H]2Nc1ncnc2[nH]c(C3CC3)cc12 (single isomer, unassigned) [EP-0038521] | 5.24 | 0.37 | 0.37 | 0.34 | 2.78 | – | 6.77 | 3.42 | – | 25.0 | 6.77 | 7.6 | +++ (+++ = 20 < x < 30) | 24.49 | 8.3 | 1.56 (≈ 0.636 µg/mL) | – | 0.3 ± 0.07 | low mitotoxicity | –
10 | FC(F)(F)c1cc2c(N[C@H]3c4ccccc4CC[C@@H]3N3C[C@H]4COC[C@H]4C3)ncnc2[nH]1 (single isomer, unassigned) [EP-0038582] | – | – | – | > 25 | – | – | 5.87 | 3.77 | – | 25.0 | – | 4.3 | – | – | 25.0 | – | Minimal | – | – | 1.56 (≈ 0.692 µg/mL)
11 | FC(F)(F)c1cc2c(N[C@@H]3c4ccccc4CC[C@H]3N3C[C@H]4COC[C@H]4C3)ncnc2[nH]1 (single isomer, unassigned) [EP-0038583] | – | 0.07 | – | 0.06 | – | – | 39.5 | 6.03 | – | 25.0 | – | 18.1 | + (+ = <10) | 158.93 | 9.1 | 1.56 (≈ 0.692 µg/mL) | – | – | – | –
12 | FC(F)(F)c1cc2c(N[C@@H]3c4ccccc4CC[C@@H]3N3CCOCC3)ncnc2[nH]1 [EP-0037820] | – | 17.4 | – | 20.3 | – | – | 58 | 41.4 | – | 16.7 | – | 60.7 | + (+ = <10) | – | – | 14.5 (≈ 6.05 µg/mL) | – | – | – | –
13 | FC(F)(F)c1cc2c(N[C@H]3c4ccccc4CC[C@@H]3N3CC4(COC4)C3)ncnc2[nH]1 [EP-0038249] | – | 2.73 | – | > 25 | – | – | 37.3 | 3.69 | – | 25.0 | – | 37.3 | – | – | – | 157 (≈ 67.4 µg/mL) | – | – | – | –
14 | COC1CCN([C@H]2CCc3ccccc3[C@@H]2Nc2ncnc3[nH]c(C(F)(F)F)cc23)CC1 [EP-0038282] | – | – | – | > 25 | – | – | 97.5 | 66.6 | – | 2.8 | – | 97.5 | – | – | – | 134 (≈ 59.7 µg/mL) | Minimal | – | – | –
15 | FC(F)(F)c1cc2c(N[C@H]3c4ccccc4CC[C@@H]3N3C4CCC3COC4)ncnc2[nH]1 [EP-0038283] | – | – | – | > 25 | – | – | 98 | 9.6 | – | 8.3 | – | 98.0 | – | – | – | 1 (≈ 0.443 µg/mL) | Minimal | – | – | –
16 | CN(CC1CCOCC1)[C@H]1CCc2ccccc2[C@@H]1Nc1ncnc2[nH]c(C(F)(F)F)cc12 [EP-0038394] | – | 8.26 | – | > 25 | – | – | 61 | 11.4 | – | 8.3 | – | 61.0 | – | – | – | 7.05 (≈ 3.24 µg/mL) | – | – | – | –
17 | c1ccc2c(c1)CC[C@H](N1CCOCC1)[C@H]2Nc1ncnc2[nH]cnc12 [EP-0039678] | – | – | – | – | – | – | 2.27 | 1.77 | – | – | – | – | – | – | – | 164 (≈ 57.5 µg/mL) | Minimal | – | – | –
